Several values for one entry are separate records, joined by “and”; a condition that tells them apart may be missing. Identical values can stand only once.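 Grown in 96-well plates, cells were treated for 48 hours with each compound at five concentrations. Insufficient inhibition: endpoint recorded as highest concentration tested. Here, GI50 denotes the concentration required for 50% inhibition of growth. TGI is the concentration that stops growth completely.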
Columns and labels:
Assay in all cases: DTP human tumour cell line panel, 48 h
SN12C renal = system: SN12C renal
MDA-MB-435 = system: MDA-MB-435
DU-145 prostate = system: DU-145 prostate
PC-3 prostate = system: PC-3 prostate
MDA-N = system: MDA-N
HCT-116 colon = system: HCT-116 colon
SK-MEL-28 melanoma = system: SK-MEL-28 melanoma
MCF7 breast = system: MCF7 breast
SK-MEL-2 melanoma = system: SK-MEL-2 melanoma
CAKI-1 renal = system: CAKI-1 renal
MALME-3M melanoma = system: MALME-3M melanoma
SF-295 CNS = system: SF-295 CNS
HOP-92 NSCLC = system: HOP-92 NSCLC
SNB-19 CNS = system: SNB-19 CNS
SF-539 CNS = system: SF-539 CNS

| Compound | TGI (SN12C renal) [µM] | TGI (MDA-MB-435) | TGI (DU-145 prostate) | TGI (PC-3 prostate) | TGI (MDA-N) [µM] | TGI (HCT-116 colon) | TGI (SK-MEL-28 melanoma) | TGI (MCF7 breast) | TGI (SK-MEL-2 melanoma) | TGI (CAKI-1 renal) | TGI (MALME-3M melanoma) | TGI (SF-295 CNS) | TGI (HOP-92 NSCLC) | TGI (SNB-19 CNS) | TGI (SF-539 CNS) | GI50 (DU-145 prostate) | GI50 (MCF7 breast) [µM] | GI50 (CAKI-1 renal) [µM] | GI50 (HOP-92 NSCLC) |
| --- | --- | --- | --- | --- | --- | --- | --- | --- | --- | --- | --- | --- | --- | --- | --- | --- | --- | --- | --- |
| c1ccc([C@@H]2N[C@@]3(CO[Si](c4ccccc4)(c4ccccc4)c4ccccc4)CC[C@H]4CN[C@@H]2[C@H]43)cc1 | 27.1 | 20.8 µM | 21.8 µM | 21.3 µM | 13.1 | 11.9 µM | 35.6 µM | 11.5 µM | 35.3 µM | 25.4 µM | 2.65 µM | 25 µM | 15.9 µM | 31.5 µM | 28.6 µM |  |  |  |  |
| CC(NC(=O)/C(C#N)=C/c1ccc2[nH]ccc2c1)c1ccccc1 (centres undefined) | 35 | 31.1 µM | 39.8 µM | 39.3 µM | 31.4 | 28.1 µM | 36.9 µM | 56 µM | 39.9 µM | 66 µM | 71.2 µM | 35.4 µM | 33.5 µM | 45.1 µM | 34.9 µM |  |  |  |  |
| CS(=O)(=O)c1[nH]nc2[nH]c(=O)[nH]c(=O)c12 | > 10 | > 10 µM | > 10 µM | > 10 µM | > 10 | > 10 µM | > 10 µM | > 10 µM | > 10 µM | > 10 µM | > 10 µM | > 10 µM | > 10 µM | > 10 µM | > 10 µM |  |  |  |  |
| CC1=CCC[C@@](C)(O)[C@@H]2C[C@H]3C(CSc4ccccc4)C(=O)O[C@H]3[C@@H](O2)[C@H](C)CCC1 (some centres undefined) | > 100 | 72 µM | 76.6 µM | 22.2 µM | 86.2 | > 100 µM | 52.9 µM | 29.4 µM | 32.3 µM | 64.6 µM | 32.1 µM | 25.3 µM | > 100 µM | 26.7 µM | 30.9 µM |  |  |  |  |
| CC(C)C[C@H](NC(=O)CCc1ccccc1)B(O)O | 61.5 | 7.79 µM | > 100 µM | > 100 µM | 7.27 | 18.6 µM | 32.4 µM | > 100 µM | 39.4 µM | 25.2 µM | 32.9 µM | 34.5 µM | 65.1 µM | > 100 µM | 15.4 µM |  |  |  |  |
| CO[C@@](c1ccccc1)(c1nc(C#N)c(N)o1)C(F)(F)F | > 100 | > 100 µM | > 100 µM | > 100 µM | > 100 | > 100 µM | > 100 µM | > 100 µM | > 100 µM | > 100 µM | > 100 µM | > 100 µM | > 100 µM | > 100 µM | > 100 µM |  |  |  |  |
| O=C1Nc2ccccc2[C@]12C[C@H]2c1ccccn1 | > 100 | > 100 µM | > 100 µM | > 100 µM | > 100 | > 100 µM | > 100 µM | > 100 µM | > 100 µM | > 100 µM | > 100 µM | > 100 µM | > 100 µM | > 100 µM | > 100 µM |  |  |  |  |
| OCCSCc1cc2c(O)c(c1)Cc1cc(CSCCO)cc(c1O)Cc1cc(CSCCO)cc(c1O)Cc1cc(CSCCO)cc(c1O)C2 | 22.7 | 9.04 µM | 23.5 µM | 8.88 µM | 11.8 | 13 µM | 13.1 µM | 14.5 µM | 5.25 µM | 9.63 µM | 5.88 µM | 16.7 µM | 15.2 µM | 15.9 µM | 12.6 µM |  |  |  |  |
| CC1=NN2C(=O)CC(=O)N=C2S1 | > 100 | > 100 µM | > 100 µM | > 100 µM | > 100 | > 100 µM | > 100 µM | > 100 µM | > 100 µM | > 100 µM | > 100 µM | > 100 µM | > 100 µM | > 100 µM | > 100 µM |  |  |  |  |
| NC1=CC(C(=O)c2ccncc2)c2nc3ccccc3nc21 (centres undefined) | > 100 | > 100 µM | > 100 µM | > 100 µM | > 100 | > 100 µM | > 100 µM | > 100 µM | > 100 µM | > 100 µM | > 100 µM | > 100 µM | > 100 µM | > 100 µM | > 100 µM |  |  |  |  |
| COc1ccc2c(c1)N(C(C)=O)CN1C(=O)CCC21 (centres undefined) | > 100 | > 100 µM | > 100 µM | > 100 µM | > 100 | > 100 µM | > 100 µM | > 100 µM | > 100 µM | > 100 µM | > 100 µM | > 100 µM | > 100 µM | > 100 µM | > 100 µM |  |  |  |  |
| CN(C)CCOC1(Cc2ccc(Cl)cc2Cl)CCC(C(C)(C)C)CC1 (centres undefined) | 3.32 | 2.89 µM and 3.18 µM | 5.91 µM and 6.45 µM | 3.68 µM and 4.1 µM | 3.31 | 3.13 µM and 3.45 µM | 3.2 µM and 2.83 µM | 3.49 µM and 3.65 µM | 3.89 µM and 3.33 µM | 4.35 µM and 10.6 µM | 4.41 µM and 3.24 µM | 3.2 µM and 3.41 µM | 3.54 µM and 5.92 µM | 3.44 µM and 3.74 µM | 14.5 µM and 3.46 µM | 1.89 µM and 2.68 µM | 1.79 | 5.18 | 1.8 µM and 2.12 µM |
| N#CC1=C(C#N)/C(=C(\C#N)C(C#N)C#N)N=C1N | > 100 | 36.7 µM | > 100 µM | > 100 µM | 30.3 | > 100 µM | 52 µM | > 100 µM | 31.6 µM | > 100 µM | 38.2 µM | > 100 µM | > 75 µM | > 100 µM | 54.5 µM |  |  |  |  |
| Cn1cnc2c(OCC3CCCCC3)nc(N)nc21 | > 100 | > 100 µM | > 100 µM | > 100 µM | > 100 | > 100 µM | > 100 µM | > 100 µM | > 100 µM | > 100 µM | > 100 µM | > 100 µM | > 100 µM | > 100 µM | > 100 µM |  |  |  |  |
| O=c1oc2ccccc2cc1-c1nnc(-c2ccccc2)s1 | > 100 | 12.9 µM | > 100 µM | > 100 µM | > 78.1 | > 100 µM | > 100 µM | > 100 µM | > 100 µM | > 100 µM | > 100 µM | > 71 µM | > 100 µM | > 84.7 µM | > 41.8 µM |  |  |  |  |
| CC(=O)OCC1OC(n2c3c(c(-c4ccc(Cl)cc4)c(C#N)c2=S)C(=O)CC(C)(C)C3)C(OC(C)=O)C(OC(C)=O)C1OC(C)=O (centres undefined) | > 53.4 | > 69.6 µM | > 100 µM | 63.6 µM | > 54.8 | > 100 µM | 65.9 µM | > 95.3 µM | 46.4 µM | > 31.9 µM | > 100 µM | > 100 µM | > 100 µM | > 86.8 µM | > 68.7 µM |  |  |  |  |
| Cc1cnc2[nH]c(-c3ccc(F)cc3)cc(=O)c2c1 | > 100 | 12.6 µM | > 100 µM | > 100 µM | 8.87 | > 100 µM | > 100 µM | > 100 µM | > 82.1 µM | > 100 µM | > 100 µM | 99 µM | > 100 µM | > 100 µM | > 100 µM |  |  |  |  |
| O=C1SC(c2ccc(Cl)cc2)(c2ccc(Cl)cc2)c2ccccc21 | > 100 | > 100 µM | > 100 µM | > 100 µM | > 100 | 55.3 µM | > 100 µM | > 100 µM | 77.5 µM | > 100 µM | > 100 µM | > 100 µM | > 100 µM | > 100 µM | > 100 µM |  |  |  |  |
| C/C(=N\NS(=O)(=O)c1ccc(C)cc1)C(CN(C)C)C(c1ccccc1)c1c(O)c2ccccc2oc1=O (centres undefined) | > 100 | > 100 µM | > 100 µM | > 100 µM | > 100 | > 100 µM | > 100 µM | > 100 µM | > 100 µM | > 100 µM | > 100 µM | > 100 µM | > 100 µM | > 100 µM | > 100 µM |  |  |  |  |

— PubChem BioAssay (NCI)
